The values that follow come from publication PMC9243770, “Structural and Biophysical Characterization of Purified Recombinant Arabidopsis thaliana's Alternative Oxidase 1A (rAtAOX1A): Interaction With Inhibitor(s) and Activator” (Frontiers in Plant Science, 2022).

Assay [1] has as its target T1, Alternative oxidase 1A (rAtAOX1A) (Arabidopsis thaliana, UniProt Q39219).
T1 construct: gene AOX1A; mature protein, N-terminal His6-tag, expressed in E. coli BL21(DE3)
T1 sequence (Q39219 63-354): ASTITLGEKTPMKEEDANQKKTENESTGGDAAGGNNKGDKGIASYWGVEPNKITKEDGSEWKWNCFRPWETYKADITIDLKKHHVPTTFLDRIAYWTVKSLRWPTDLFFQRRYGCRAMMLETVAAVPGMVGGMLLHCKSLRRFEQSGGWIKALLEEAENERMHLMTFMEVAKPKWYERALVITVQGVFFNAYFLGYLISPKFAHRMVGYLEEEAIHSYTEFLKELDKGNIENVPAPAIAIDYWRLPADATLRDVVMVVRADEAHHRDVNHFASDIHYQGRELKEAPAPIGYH
The experiment in a line: SPR (Biacore, CM5 chip, […] Langmuir kinetic fit); also CD and inhibition of cell respiration. Format: binding. (In general: SPR reads the build-up and loss of mass on a sensor chip optically.)

The target in assay [2] is T1, Alternative oxidase 1A (rAtAOX1A). The experiment in a line: oxygen uptake of purified enzyme with […] duroquinol (Clark-type electrode). Type of assay: biochemical.

The structures appear in SMILES notation. pKd: −log10 of the molar value.

As for `O=C(NO)c1ccccc1O` [SHAM, salicylhydroxamic acid], the pKd in assay [1] is 8.51.

In assay [1], `CCCOC(=O)c1cc(O)c(O)c(O)c1` [n-PG, n-propyl gallate] had a pKd of 9.31.

Turning to `Cc1c(C)c(O)c(C)c(C)c1O` [DQH2, duroquinol], the “oxygen uptake of purified enzyme with 600 μM duroquinol (Clark-type electrode)” value in assay [2] is 3.86 μmol O2 min^−1 mg^−1 protein.

Usually pKd stands for the Kd on a negative log10 scale, so that one unit is a factor of ten. High values mean a low Kd, low ones a high Kd.
